In PubChem BioAssay (NCI):
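Results reflect a 48-hour exposure of cells in 96-well plates to compound at five concentrations. GI50 marks 50% less growth. The concentration for full growth arrest is given as TGI.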

Assays:
Experiment in all cases: NCI tumour cell line growth inhibition, 48 h
[1] = test system: 786-0 renal
[2] = test system: A498 renal
[3] = test system: A549 NSCLC
[4] = test system: ACHN renal
[5] = test system: BT-549 breast
[6] = test system: CAKI-1 renal
[7] = test system: CCRF-CEM leukemia
[8] = test system: COLO 205 colon
[9] = test system: DU-145 prostate
[10] = test system: EKVX NSCLC
[11] = test system: HCC-2998 colon
[12] = test system: HCT-116 colon
[13] = test system: HCT-15 colon
[14] = test system: HL-60(TB) leukemia
[15] = test system: HOP-62 NSCLC
[16] = test system: HOP-92 NSCLC
[17] = test system: HS 578T breast
[18] = test system: HT29 colon
[19] = test system: IGROV1 ovarian
[20] = test system: K-562 leukemia
[21] = test system: KM12 colon
[22] = test system: LOX IMVI melanoma
[23] = test system: M14 melanoma
[24] = test system: MALME-3M melanoma
[25] = test system: MCF7 breast
[26] = test system: MDA-MB-231 breast
[27] = test system: MDA-MB-435
[28] = test system: MOLT-4 leukemia
[29] = test system: NCI-H226 lung
[30] = test system: NCI-H23 lung
[31] = test system: NCI-H460 lung
[32] = test system: NCI-H522 lung
[33] = test system: NCI/ADR-RES ovarian
[34] = test system: OVCAR-3 ovarian
[35] = test system: OVCAR-4 ovarian
[36] = test system: OVCAR-5 ovarian
[37] = test system: OVCAR-8 ovarian
[38] = test system: PC-3 prostate
[39] = test system: RPMI-8226 leukemia
[40] = test system: RXF 393 renal
[41] = test system: SF-268 CNS
[42] = test system: SF-295 CNS
[43] = test system: SF-539 CNS
[44] = test system: SK-MEL-2 melanoma
[45] = test system: SK-MEL-28 melanoma
[46] = test system: SK-MEL-5 melanoma
[47] = test system: SK-OV-3 ovarian
[48] = test system: SN12C renal
[49] = test system: SNB-19 CNS
[50] = test system: SNB-75 CNS
[51] = test system: SR leukemia
[52] = test system: SW-620 colon
[53] = test system: T-47D breast
[54] = test system: TK-10 renal
[55] = test system: U251 CNS
[56] = test system: UACC-257 melanoma
[57] = test system: UACC-62 melanoma
[58] = test system: UO-31 renal
[59] = test system: MDA-N

Q: Which results are given for `COc1ccc(CN(C)c2ccc(CO)c(Cl)c2)cc1`?
A: GI50 [1]: 13.7 µM; TGI [1]: > 66.4 µM; GI50 [2]: 0.0416 µM; TGI [2]: 0.178 µM; GI50 [3]: 5.75 µM; TGI [3]: 55.6 µM; GI50 [4]: 32.6 µM; TGI [4]: > 100 µM; GI50 [5]: 19.8 µM; TGI [5]: 73.7 µM; GI50 [6]: 3 µM; TGI [6]: > 64.1 µM; GI50 [7]: 32.9 µM; TGI [7]: > 100 µM; GI50 [8]: 3.55 µM; TGI [8]: 17.5 µM; GI50 [9]: 34.2 µM; TGI [9]: > 100 µM; GI50 [10]: 22 µM; TGI [10]: > 91.6 µM; GI50 [11]: 13.7 µM; TGI [11]: 71.2 µM; GI50 [12]: 0.368 µM; TGI [12]: 14.2 µM; GI50 [13]: 21 µM; TGI [13]: > 100 µM; GI50 [14]: 17.7 µM; TGI [14]: 64.8 µM; GI50 [15]: 7.58 µM; TGI [15]: > 100 µM; GI50 [16]: 4.7 µM; TGI [16]: 45.3 µM; GI50 [17]: 38.4 µM; TGI [17]: > 100 µM; GI50 [18]: 5.5 µM; TGI [18]: > 88.3 µM; GI50 [19]: 0.405 µM; TGI [19]: 3.3 µM; GI50 [20]: 7.59 µM; TGI [20]: > 100 µM; GI50 [21]: 24.6 µM; TGI [21]: > 92.8 µM; GI50 [22]: 27.9 µM; TGI [22]: > 100 µM; GI50 [23]: 22.7 µM; TGI [23]: > 95.5 µM; GI50 [24]: 21 µM; TGI [24]: 65.6 µM; GI50 [25]: 0.892 µM; TGI [25]: > 64.9 µM; GI50 [26]: 22.7 µM; TGI [26]: > 88.8 µM; GI50 [27]: 24.2 µM; TGI [27]: 95.4 µM; GI50 [28]: 25.8 µM; TGI [28]: > 86.7 µM; GI50 [29]: 0.125 µM; TGI [29]: 0.279 µM; GI50 [30]: 12.9 µM; TGI [30]: > 100 µM; GI50 [31]: 1.04 µM; TGI [31]: 15 µM; GI50 [32]: 22.4 µM; TGI [32]: > 80.7 µM; GI50 [33]: 15.9 µM; TGI [33]: 55.3 µM; GI50 [34]: 2.93 µM; TGI [34]: 12.8 µM; GI50 [35]: 1.93 µM; TGI [35]: > 45.9 µM; GI50 [36]: 0.439 µM; TGI [36]: 2.9 µM; GI50 [37]: 19.6 µM; TGI [37]: > 100 µM; GI50 [38]: 20.7 µM; TGI [38]: > 100 µM; GI50 [39]: 9.71 µM; TGI [39]: > 65.4 µM; GI50 [40]: 10.9 µM; TGI [40]: > 79.8 µM; GI50 [41]: 33.4 µM; TGI [41]: > 100 µM; GI50 [42]: 3.35 µM; TGI [42]: > 100 µM; GI50 [43]: 47.7 µM; TGI [43]: > 100 µM; GI50 [44]: 8.37 µM; TGI [44]: 38.7 µM; GI50 [45]: 24.6 µM; TGI [45]: > 100 µM; GI50 [46]: 8.24 µM; TGI [46]: 21.9 µM; GI50 [47]: 18.8 µM; TGI [47]: 88.8 µM; GI50 [48]: 21.5 µM; TGI [48]: > 100 µM; GI50 [49]: 34 µM; TGI [49]: > 100 µM; GI50 [50]: 23.5 µM; TGI [50]: > 90.7 µM; GI50 [51]: 27 µM; TGI [51]: > 100 µM; GI50 [52]: 4.53 µM; TGI [52]: > 100 µM; GI50 [53]: 0.513 µM; TGI [53]: 3.82 µM; GI50 [54]: 0.179 µM; TGI [54]: 0.793 µM; GI50 [55]: 4.05 µM; TGI [55]: > 87.3 µM; GI50 [56]: 0.318 µM; TGI [56]: 1.22 µM; GI50 [57]: 0.274 µM; TGI [57]: 2.24 µM; GI50 [58]: 9.38 µM; TGI [58]: 92.2 µM

Q: With `CCOC(=O)C(Cl)(NC(=O)NC(Cl)(C(=O)OCC)C(F)(F)F)C(F)(F)F` (configuration not stated) as the compound, how does the TGI [1] read?
A: > 100 µM

Q: And the TGI [2]?
A: > 100 µM

Q: And the TGI [4]?
A: > 100 µM

Q: And the TGI [7]?
A: > 100 µM

Q: What about the TGI [8] of the same compound?
A: > 100 µM

Q: What about the TGI [11] of the same compound?
A: > 100 µM

Q: What about the TGI [12] of the same compound?
A: > 100 µM

Q: And the TGI [13]?
A: > 100 µM

Q: What about the TGI [14] of the same compound?
A: > 100 µM

Q: And the TGI [17]?
A: > 100 µM

Q: And the TGI [18]?
A: > 100 µM

Q: What about the TGI [20] of the same compound?
A: > 100 µM

Q: And the TGI [22]?
A: > 100 µM

Q: What about the TGI [59] of the same compound?
A: > 100 µM

Q: What about the TGI [28] of the same compound?
A: > 100 µM

Q: And the TGI [30]?
A: > 100 µM

Q: What about the TGI [33] of the same compound?
A: > 100 µM

Q: And the TGI [36]?
A: > 100 µM

Q: And the TGI [38]?
A: > 100 µM

Q: And the TGI [39]?
A: > 100 µM

Q: And the TGI [40]?
A: > 100 µM

Q: And the TGI [41]?
A: > 100 µM

Q: What about the TGI [43] of the same compound?
A: > 100 µM

Q: And the TGI [44]?
A: > 100 µM

Q: What about the TGI [45] of the same compound?
A: > 100 µM

Q: What about the TGI [47] of the same compound?
A: > 100 µM

Q: And the TGI [48]?
A: > 100 µM

Q: And the TGI [49]?
A: > 100 µM

Q: What about the TGI [50] of the same compound?
A: > 100 µM

Q: And the TGI [51]?
A: > 100 µM

Q: And the TGI [55]?
A: > 100 µM

Q: What about the TGI [56] of the same compound?
A: > 100 µM

Q: And the TGI [58]?
A: > 100 µM

Q: `COCC(N=CN1CCCc2ccccc2[C@@H]1CCCCl)C(C)(C)C` (some centres not stated) was tested. Which TGI [1] did it give?
A: 28.1 µM

Q: What about the TGI [2] of the same compound?
A: 33.5 µM

Q: What about the TGI [3] of the same compound?
A: 66.3 µM

Q: What about the TGI [4] of the same compound?
A: 70 µM

Q: And the TGI [6]?
A: 31.9 µM

Q: What about the TGI [7] of the same compound?
A: > 100 µM

Q: And the TGI [8]?
A: 10.3 µM

Q: What about the TGI [9] of the same compound?
A: > 100 µM

Q: What about the TGI [10] of the same compound?
A: 88.9 µM

Q: What about the TGI [11] of the same compound?
A: 33.9 µM

Q: And the TGI [12]?
A: 9.48 µM

Q: And the TGI [13]?
A: > 100 µM

Q: What about the TGI [14] of the same compound?
A: 8.97 µM

Q: What about the TGI [15] of the same compound?
A: 52.9 µM

Q: And the TGI [16]?
A: 30 µM

Q: What about the TGI [17] of the same compound?
A: 17.6 µM

Q: What about the TGI [18] of the same compound?
A: 69.7 µM

Q: And the TGI [19]?
A: 14.2 µM

Q: What about the TGI [20] of the same compound?
A: 14.2 µM

Q: And the TGI [21]?
A: 20.3 µM

Q: And the TGI [22]?
A: 24.2 µM

Q: What about the TGI [23] of the same compound?
A: 18.3 µM

Q: And the TGI [24]?
A: 6.27 µM

Q: What about the TGI [25] of the same compound?
A: 4.28 µM

Q: What about the TGI [26] of the same compound?
A: 9.48 µM

Q: What about the TGI [27] of the same compound?
A: 26.4 µM

Q: And the TGI [59]?
A: 68.2 µM

Q: And the TGI [28]?
A: 15.5 µM

Q: What about the TGI [29] of the same compound?
A: 23.9 µM

Q: What about the TGI [30] of the same compound?
A: 21.1 µM

Q: And the TGI [31]?
A: 97.2 µM

Q: What about the TGI [32] of the same compound?
A: 21.1 µM

Q: What about the TGI [33] of the same compound?
A: 3.19 µM

Q: What about the TGI [34] of the same compound?
A: 0.729 µM

Q: What about the TGI [35] of the same compound?
A: 36 µM

Q: What about the TGI [36] of the same compound?
A: 49.5 µM

Q: What about the TGI [37] of the same compound?
A: 40.7 µM

Q: And the TGI [38]?
A: 91.4 µM

Q: What about the TGI [39] of the same compound?
A: 8.95 µM

Q: What about the TGI [40] of the same compound?
A: 32.5 µM

Q: And the TGI [41]?
A: > 100 µM

Q: What about the TGI [42] of the same compound?
A: 35.1 µM

Q: And the TGI [43]?
A: 24.4 µM

Q: What about the TGI [44] of the same compound?
A: 38.3 µM

Q: And the TGI [45]?
A: > 100 µM

Q: And the TGI [46]?
A: 9.35 µM

Q: And the TGI [47]?
A: 70.1 µM

Q: What about the TGI [48] of the same compound?
A: 59 µM

Q: And the TGI [49]?
A: 65.1 µM

Q: What about the TGI [50] of the same compound?
A: 11.8 µM

Q: And the TGI [51]?
A: 12.2 µM

Q: What about the TGI [52] of the same compound?
A: 57.6 µM

Q: And the TGI [53]?
A: 84.1 µM

Q: And the TGI [54]?
A: 28.8 µM

Q: What about the TGI [55] of the same compound?
A: 34.8 µM

Q: And the TGI [56]?
A: 7.68 µM

Q: What about the TGI [57] of the same compound?
A: 32.1 µM

Q: And the TGI [58]?
A: 33.2 µM
